Laboratory results: US10450301B2, “Apoptosis signal-regulating kinase 1 inhibitors and methods of use thereof” (ENANTA PHARMACEUTICALS, INC., priority 2017, dated 2019)

What follows are compounds tested against ASK1 (Homo sapiens (Human), UniProt Q99683) (assay: HTRF KinEASE Assay (TR-FRET, STK3 peptide substrate), inhibition of ASK1). Conditions: 5 nM ASK1 kinase, 1 μM STK3 peptide substrate, 100 μM ATP, 3 hours; compound 0 to 10 μM.
Format: biochemical
How it was run: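 TR-FRET HTRF KinEASE-STK format with an STK3 biotinylated peptide substrate. Signal tracks phosphorylation; IC50 from curve fitting.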

Sequence of ASK1 (Q99683 whole entry): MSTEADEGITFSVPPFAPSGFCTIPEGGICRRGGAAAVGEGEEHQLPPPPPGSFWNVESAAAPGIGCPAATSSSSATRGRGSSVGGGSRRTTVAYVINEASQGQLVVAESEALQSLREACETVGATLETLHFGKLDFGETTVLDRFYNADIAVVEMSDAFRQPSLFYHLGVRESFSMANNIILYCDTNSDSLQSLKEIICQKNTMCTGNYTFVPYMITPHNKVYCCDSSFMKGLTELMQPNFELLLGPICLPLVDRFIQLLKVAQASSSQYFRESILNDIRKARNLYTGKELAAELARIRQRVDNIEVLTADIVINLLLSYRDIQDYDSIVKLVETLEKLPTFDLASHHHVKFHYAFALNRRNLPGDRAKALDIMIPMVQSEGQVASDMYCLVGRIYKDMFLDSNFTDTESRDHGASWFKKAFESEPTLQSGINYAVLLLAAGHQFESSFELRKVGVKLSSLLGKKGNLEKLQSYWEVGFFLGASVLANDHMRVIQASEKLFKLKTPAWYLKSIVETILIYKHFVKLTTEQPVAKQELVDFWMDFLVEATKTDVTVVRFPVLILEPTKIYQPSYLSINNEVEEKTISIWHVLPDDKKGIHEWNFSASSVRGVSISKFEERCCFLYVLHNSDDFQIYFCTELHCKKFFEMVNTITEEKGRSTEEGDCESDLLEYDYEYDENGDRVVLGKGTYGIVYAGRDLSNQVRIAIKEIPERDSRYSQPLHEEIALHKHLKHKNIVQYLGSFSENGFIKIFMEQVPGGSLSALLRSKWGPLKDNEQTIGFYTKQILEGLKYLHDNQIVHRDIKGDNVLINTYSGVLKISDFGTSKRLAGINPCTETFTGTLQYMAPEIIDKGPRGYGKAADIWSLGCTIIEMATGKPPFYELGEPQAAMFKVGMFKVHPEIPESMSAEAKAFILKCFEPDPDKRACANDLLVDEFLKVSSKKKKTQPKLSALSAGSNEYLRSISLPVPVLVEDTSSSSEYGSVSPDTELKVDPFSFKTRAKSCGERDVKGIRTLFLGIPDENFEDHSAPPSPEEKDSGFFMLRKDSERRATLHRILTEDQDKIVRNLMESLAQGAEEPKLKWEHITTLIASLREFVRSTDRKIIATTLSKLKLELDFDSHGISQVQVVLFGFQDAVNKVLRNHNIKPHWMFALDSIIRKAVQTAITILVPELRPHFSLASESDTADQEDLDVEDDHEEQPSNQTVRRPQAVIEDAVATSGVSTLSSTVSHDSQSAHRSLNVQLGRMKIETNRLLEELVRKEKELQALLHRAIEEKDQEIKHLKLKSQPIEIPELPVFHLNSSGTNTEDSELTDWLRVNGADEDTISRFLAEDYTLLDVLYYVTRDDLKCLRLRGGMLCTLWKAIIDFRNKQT

IC50 [nM] | Compound
1 to 10 | C[C@H](CO)n1nnnc1-c1cccc(NC(=O)c2cc3c(cn2)CCN(C)C3)n1 [Example 181]
1 to 10 | C[C@H](CO)n1nnnc1-c1cccc(NC(=O)c2cc3c(cn2)CCN(C(=O)NCCC(F)(F)F)C3)n1 [Example 183]
> 1000 | CC(C)n1cnnc1-c1cccc(NC(=O)c2ccc3c(c2)CN(C(=O)OC(C)(C)C)CC3)n1 [Example 183a]
> 1000 | C[C@H](CO)n1nnnc1-c1cccc(NC(=O)c2cc3c(cn2)CCN(C(=O)N(C)C2CCCC2)C3)n1 [Example 184, (R)—N2-cyclopentyl-N7-(6-(1-(1-hydroxypropan-2-yl)-1H-tetrazol-5-yl)pyridin-2-yl)-N2-methyl-3,4-dihydro-2,6-naphthyridine-2,7(1H)-dicarboxamide]
1 to 10 | C[C@H](CO)n1nnnc1-c1cccc(NC(=O)c2cc3c(cn2)CCN(C(=O)N2CCC2)C3)n1 [Example 185, (R)-6-(azetidine-1-carbonyl)-N-(6-(1-(1-hydroxypropan-2-yl)-1H-tetrazol-5-yl)pyridin-2-yl)-5,6,7,8-tetrahydro-2,6-naphthyridine-3-carboxamide]
10 to 100 | C[C@H](CO)n1nnnc1-c1cccc(NC(=O)c2cc3c(cn2)CCN(C(=O)NC2COC2)C3)n1 [Example 186]
< 1 | CCn1cc(CNC(=O)N2CCc3cnc(C(=O)Nc4cccc(-c5nnnn5[C@H](C)CO)n4)cc3C2)cn1 [Example 187]
1 to 10 | CCn1cc(COC(=O)N2CCc3cnc(C(=O)Nc4cccc(-c5nnnn5[C@H](C)CO)n4)cc3C2)cn1 [Example 188, (1-ethyl-1H-pyrazol-4-yl)methyl (R)-7-((6-(1-(1-hydroxypropan-2-yl)-1H-tetrazol-5-yl)pyridin-2-yl)carbamoyl)-3,4-dihydro-2,6-naphthyridine-2(1H)-carboxylate]

Compound | IC50 [nM]
C[C@H](CO)n1nnnc1-c1cccc(NC(=O)c2cc3c(cn2)CCN(C(=O)N2[C@@H]4CCC[C@H]2CC4)C3)n1 [Example 182, 6-((1R,5 S)-8-azabicyclo[3.2.1]octane-8-carbonyl)-N-(6-(1-((R)-1-hydroxypropan-2-yl)-1H-tetrazol-5-yl)pyridin-2-yl)-5,6,7,8-tetrahydro-2,6-naphthyridine-3-carboxamide] | 1 to 10
C[C@H](CO)n1nnnc1-c1cccc(NC(=O)c2cc3c(cn2)CCN(C(=O)OC2CC4CCC(C2)N4C)C3)n1 (stereo partly drawn) [Example 190, 8-methyl-8-azabicyclo[3.2.1]octan-3-yl 7-((6-(1-((R)-1-hydroxypropan-2-yl)-1H-tetrazol-5-yl)pyridin-2-yl)carbamoyl)-3,4-dihydro-2,6-naphthyridine-2(1H)-carboxylate] | 1 to 10
